US7829662B2, “Method of treating apoptosis and compositions thereof” (Dana Farber Cancer Institute, Inc., priority 2001, dated 2010)
“Also recorded” adds a separate entry of the source.

Tests used:
mitochondria [1] = experiment: Cytochrome c release from isolated liver mitochondria (immunoblot densitometry or ELISA); type: biochemical, Balb/cJ mice
Protocol: Mitochondria were isolated from liver of Balb/cJ mice by standard differential centrifugation, and resuspended in isolation buffer (IB) (0.2 M sucrose, 10 mM Tris-MOPS pH 7.4, 0.1 mM EGTA-Tris, 0.1% delipidated BSA).
At the indicated time, mitochondria were pelleted by centrifugation at 12000×g at 4° C. for 3 min, and resuspended in the same volume of EB. Cytochrome c release was determined either by densitometry (Stratagene Eagle Eye II, BioRad) of immunoblots, or by rat/mouse specific ELISA performed on mitochondrial pellet and supernatant diluted 1:20 in PBS containing 0.5% Triton X-100 (R&D systems, MN). Cytochrome c is reported as the percentage of the supernatant over the total (pellet plus supernatant).
For SDS-PAGE, 20 μg of mitochondrial protein was loaded in each lane of a 12% NuPAGE (NoVex, CA) gel. After separation, proteins were transferred onto PVDF membranes (Immobilon-P, Millipore, Calif.) and membranes were probed as indicated with the following primary antibodies: anti-cytochrome c (Pharmingen, CA, 1:1000); anti-BID (1:1500); anti-BAK (Calbiochem, CA, 1:1000). HRPO-conjugated secondary antibodies (CalTag, CA, 1:2000) were visualized by chemiluminescence (Amersham, N.J.).
(§1) Mitochondria were incubated with increasing amounts of digitonin to assess how much cytochrome c was released from IMS by the selective solubilization of the OM (Hoppel and Cooper, 107, 367-375, 1968). To monitor interaction of digitonin with the […], uncoupled respiration in the presence of excess exogenous cytochrome c was assessed. Specifically 0.5 mg/ml mitochondria was incubated in EB with the indicated concentration of digitonin. After 5 minutes, mitochondria were centrifuged and cytochrome c content in the resulting pellet and supernatant were determined as described. Uncoupled JO2, uncoupled respiratory rate was recorded in parallel experiments. After 5 minutes of incubation with the indicated concentration of digitonin, mitochondria were treated with 400 pmol CCCP×mg protein-1 in the presence of 10 nmol cytochrome c×mg protein.

mitochondria [2] = experiment: Uncoupled respiration (JO2) of digitonin-treated mitochondria; type: biochemical, Balb/cJ mice; conditions: CCCP, exogenous cytochrome c
Protocol: as §1, with “protein. Approximately 16% of the total cytochrome c could be released by digitonin without substantial respiratory inhibition (no interference of digitonin with the IM) (Table 1), a percentage in agreement with the pool of cytochrome c estimated to reside in the IMS (Bernardi and Azzone, 1981). Therefore, tBID must deploy additional events to enable the release of nearly all cytochrome c from the mitochondrion.” for “protein.”

Bak −/− mitochondria = experiment: Digitonin releasable cytochrome c pool; type: biochemical; conditions: digitonin concentration that does not interfere with IM function (80 pmol × mg protein^−1, 5 mins)
mitochondria [3] = experiment: Mitochondrial swelling by side scatter at 545 nm; type: biochemical, Balb/cJ mice; conditions: 10 μM 14mer
Protocol: tBID was evaluated to determine if it causes any swelling or depolarization that might reflect an opening of the PTP. Swelling of 0.5 mg/ml mitochondria incubated in EB was monitored by changes in side scatter at 545±2.5 nm using LS-50B spectrofluorimeter equipped with magnetic stirring at 25° C. Membrane potential changes of 0.5 mg/ml mitochondria incubated in experimental buffer were monitored from the dequenching of a 0.3 μM Rhodamine 123 (Molecular Probes, OR) solution in a LS-50B spectrofluorimeter at 25° C., using excitation and emission wavelengths set at 503±2.5 nm and 525±5 nm, respectively.
To determine if the BID α6 14mer (SEQ ID NO:1) induced mitochondrial swelling or release of cytochrome c across the mitochondrial outer membrane, mitochondria at 1 mg/ml were incubated in experimental buffer and, where indicated, 20 μM Ca^2+ and 10 μM 14mer were added. Where noted, mitochondria were preincubated with CsA. […] Mitochondria were incubated with 10 μM 14mer in the presence or in the absence of 1 μM CsA. At the indicated time in minutes, mitochondria were pelleted by centrifugation and cytochrome c in the pellet and in the supernatant was determined.

[4] = system: calcein loaded mitochondria; experiment: Release of matrix-entrapped calcein (transient PTP opening); type: biochemical, Balb/cJ mice; conditions: 10 μM BID α6 14mer
Protocol: To assess calcein release, mitochondria suspended in IB without BSA were loaded with 10 nmol×mg protein^−1 calcein-AM (Molecular Probes, Eugene, Oreg.) for 20 mins at room temperature in the dark. Following two washes in IB, the calcein loaded mitochondria were resuspended in IB at a final concentration of 10 mg/ml. 0.5 mg/ml calcein loaded mitochondria were incubated in EB and treated as described. After the indicated time, mitochondria were pelleted. Calcein was measured in an LS-50B spectrofluorimeter (Perkin Elmer) with excitation and emission wavelengths set at 488±2.5 nm and 542±2.5 nm, respectively.
After 30 min mitochondria were spun at 14000 g for 3 min at 4 C and the calcein content in the pellet and in the supernatant was determined. […] To determine if a BID α6 mutation variant, BID α6 mutein (SEQ ID NO:7), would inhibit cytochrome c release, His-tag p22 wt BID and the BID α6 mutein were expressed, purified on a Ni^2+ column, and cleaved with caspase 8.
Mitochondria were loaded with calcein and treated with 10 μM BID α6 14mer. Where noted, mitochondria were pretreated with 1 μM CsA. At the indicated time, mitochondria were pelleted by centrifugation and calcein in the pellet and in the supernatant was determined.

BAK = BAK oligomerization (BMH crosslinking, anti-BAK immunoblot); type: biochemical, Balb/cJ mice; conditions: 10 μM BID α6 14mer, 30 min
Protocol: In lanes 7-8 mitochondria were pretreated with 800 pmol CsA×mg protein^−1 for 3 mins. After the indicated time, DMSO (lanes 1-2) or 10 mM BMH (lanes 3-8) was added, and after another 30 min the crosslinking reaction was quenched (Wei et al., 2001). The mitochondria were subjected to SDS-PAGE and immunoblot with anti BAK antibody. Star, BAK multimers.
To also determine if the BID α6 14mer (SEQ ID NO:1) modulated BAK oligomerization, mitochondria were incubated for 30 min with 10 μM BID α6 14mer in the presence or in the absence of 1 μM CsA. Crosslinking with BMH, SDS-PAGE and anti BAK immunoblotting was carried out.

wt mitochondria = experiment: Cytochrome b5-dependent NADH oxidation assay; type: biochemical, Balb/cJ mice; conditions: 10 μM BID α6 14mer, 20 min
Protocol: (d), mitochondria were preincubated for 2 min with 800 pmol CsA×mg protein^−1. (a), no additions. After 15 min, respiratory chain inhibitors were added and after another 2 minutes NADH fluorescence reading started. Arrow, 20 nmol NADH×mg protein^−1. In (e), 200 nmol mersalyl×mg protein was added 1 min before NADH.
In the cytochrome b5-dependent NADH oxidation assay, 1 mg/ml mitochondria were incubated in EB and treated as indicated. 400 pmol CCCP, 2 nmol rotenone and 1 nmol antimycin A×mg protein^−1 were added after the time indicated and the reaction transferred to a cuvette. After 2 min, 10 μM NADH was added and its oxidation monitored as the decrease in NADH fluorescence in a LS50B spectrofluorimeter (Perkin Elmer) set with λex=366 nm and λem=455 nm, with 5 nm slits.

C[C@@H]1CC[C@@]2(OC1)O[C@H]1[C@@H](O)[C@H]3[C@@H]4CC[C@H]5C[C@@H](O[C@@H]6O[C@H](CO)[C@H](O[C@@H]7O[C@H](CO)[C@@H](O)[C@H](O[C@@H]8OC[C@@H](O)[C@H](O)[C@H]8O)[C@H]7O[C@@H]7O[C@H](CO)[C@H](O)[C@H](O[C@@H]8O[C@H](CO)[C@@H](O)[C@H](O)[C@H]8O)[C@H]7O)[C@H](O)[C@H]6O)[C@H](O)C[C@]5(C)[C@H]4CC[C@]3(C)[C@H]1[C@@H]2C [Digitonin]
Cytochrome c release (% of total) (mitochondria [1]; Digitonin 48 pmol × mg protein^−1, 5 minutes): 10.7 % of total
Cytochrome c release (% of total) (mitochondria [1]; Digitonin 80 pmol × mg protein^−1, 5 minutes): 16.4 % of total
Cytochrome c release (% of total) (mitochondria [1]; Digitonin 145 pmol × mg protein^−1, 5 minutes): 26.6 % of total
total cytochrome c released by digitonin (mitochondria [1]; without substantial respiratory inhibition): Approximately 16%
Uncoupled JO2 (mitochondria [2]; Digitonin 48 pmol × mg protein^−1): 60 nAt × min^−1 × mg protein^−1
Uncoupled JO2 (mitochondria [2]; Digitonin 80 pmol × mg protein^−1): 60 nAt × min^−1 × mg protein^−1
Uncoupled JO2 (mitochondria [2]; Digitonin 145 pmol × mg protein^−1): 46.7 nAt × min^−1 × mg protein^−1
release of total cytochrome c by digitonin (Bak −/− mitochondria): 19.2±4.8%

NH2-XMLXXXXLLAKKVA—COOH [BID α6 14mer, 14 amino acid peptide of the BID α6 helix]
release of cytochrome c across the mitochondrial outer membrane (mitochondria [1]; 10 μM 14mer): nor did it trigger the actual release of cytochrome c across the mitochondrial outer membrane; also recorded: does not cause cytochrome c release across the outer membrane
mitochondrial swelling (mitochondria [3]): did not induce swelling of mitochondria; also recorded: does not induce mitochondrial swelling
calcein release (onset of transient PT) [4]: resulted in the efflux of mitochondrial matrix entrapped calcein; also recorded: causes calcein release from mitochondria
BAK oligomerization (BAK): did not result in BAK oligomerization; also recorded: does not induce BAK oligomerization
mobilization of cytochrome c (cytochrome b5-dependent NADH oxidation) (wt mitochondria): induced the mobilization of cytochrome c; also recorded: induces cytochrome c redistribution
